The assay deals with adhesion of neutrophils to EA.hy 926 endothelial cell line. In words: Adhesion of neutrophils to TNFα-induced EA.hy 926 endothelial cells. Type of assay: cell-based. As to conditions: for reduction of adhesion of neutrophils to cytokine-induced endothelial cell line: EAhy. 926; for inhibition of the adhesion: lower concentration, percent of the adhesion induced by TNFα. Here is the method: The applicants of the present invention have shown that lycopene, lutein and 7% Lye-O-Mato® can improve endothelial function by reducing, to similar extent (60±15%), the adhesion of neutrophils to cytokine-induced endothelial cell line (EAhy. 926). […] Lycopene 610 and oleoresin were diluted by 1:12 fold and lutein by 1:8 fold which result in ˜0.2 μM lycopene 610, ˜0.125 μM oleoresin and ˜0.6 μM lutein. The adhesion of neutrophils to EA.hy 926 cells were measured after the endothelial cells were induced by TNFα which result in increase of 60±10% in the adhesion from their combination, was calculated as percent of the adhesion induced by TNFα

These results are taken from patent US20100233256A1, “SYNERGISTIC COMBINATIONS FOR TREATING HYPERTENSION” (LYCORED LTD., priority 2007, published 2010).

Turning to `CC1=C[C@H](O)CC(C)(C)[C@H]1/C=C/C(C)=C/C=C/C(C)=C/C=C/C=C(C)/C=C/C=C(C)/C=C/C1=C(C)C[C@@H](O)CC1(C)C` [lutein], the “reduction of adhesion of neutrophils to cytokine-induced endothelial cell line” value (high concentration: lutein 4-5 μM) was determined as 60±15%. Further, the “inhibition of the adhesion” value (~0.6 μM lutein, FIG. 1A) is on record as 56±15%.

For `CC(C)=CCC/C(C)=C/C=C/C(C)=C/C=C/C(C)=C/C=C/C=C(C)/C=C/C=C(C)/C=C/C=C(\C)CCC=C(C)C` [lycopene], the “reduction of adhesion of neutrophils to cytokine-induced endothelial cell line” value (high concentration: lycopene 610 2-3 μM) is 60±15%. For the same compound, for the setting “~0.2 μM lycopene 610, FIG. 1B”, the “inhibition of the adhesion” value came to 40±22%.
